Results as given in US20250197372A1 (priority 2020, published 2025).

biological target: T1, recombinant alpha-glucosidase I (human full-length glucosidase I, Glu 1) (Homo sapiens, UniProt Q13724); assay: Alpha-glucosidase I assay (Amplex Red glucose detection, synthetic trisaccharide substrate); type: biochemical; conditions: not given
T1 construct: 6-His (C); made in house; host or cells: HEK-293T cells transduced with BacMam virus (virus raised in Sf9)
T1 sequence (Q13724 1-837): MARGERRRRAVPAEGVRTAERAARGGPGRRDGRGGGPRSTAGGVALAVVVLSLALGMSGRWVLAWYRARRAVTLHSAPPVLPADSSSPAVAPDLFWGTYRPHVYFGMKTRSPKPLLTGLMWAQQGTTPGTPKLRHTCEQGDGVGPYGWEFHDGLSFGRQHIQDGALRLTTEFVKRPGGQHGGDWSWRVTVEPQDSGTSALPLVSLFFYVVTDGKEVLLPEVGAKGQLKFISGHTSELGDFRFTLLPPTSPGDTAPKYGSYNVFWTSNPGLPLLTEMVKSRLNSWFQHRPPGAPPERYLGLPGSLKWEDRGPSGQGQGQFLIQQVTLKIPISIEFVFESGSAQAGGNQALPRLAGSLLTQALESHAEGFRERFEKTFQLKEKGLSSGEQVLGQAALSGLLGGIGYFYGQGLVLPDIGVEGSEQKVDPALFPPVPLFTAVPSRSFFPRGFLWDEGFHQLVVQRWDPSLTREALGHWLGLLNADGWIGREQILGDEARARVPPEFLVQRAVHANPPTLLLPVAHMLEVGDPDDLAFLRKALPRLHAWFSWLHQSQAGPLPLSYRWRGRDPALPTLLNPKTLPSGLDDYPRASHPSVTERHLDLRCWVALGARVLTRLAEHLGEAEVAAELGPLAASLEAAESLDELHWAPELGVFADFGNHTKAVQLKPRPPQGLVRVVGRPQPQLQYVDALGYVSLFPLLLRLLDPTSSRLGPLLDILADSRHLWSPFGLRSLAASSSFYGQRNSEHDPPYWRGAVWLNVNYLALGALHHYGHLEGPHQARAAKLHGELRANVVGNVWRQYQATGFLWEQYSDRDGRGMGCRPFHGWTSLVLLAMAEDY
Summary of the method: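 Compound dilution series incubated 60 min at 37° C with recombinant His-tagged human glucosidase I ([…]), after which trisaccharide substrate analog was added for 90 min at 37° C. Reaction quenched with 1.5M Tris pH 8; D-glucose detected by Amplex Red fluorescence, 560/590 nm. 4-PL curve fit of percent inhibition gave IC50.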

[N-]=[N+]=Nc1ccc(NCC/C=C/CCN2C[C@H](O)[C@@H](O)[C@H](O)[C@H]2CO)c([N+](=O)[O-])c1 [Compound 1260, (2R,3R,4R,5S)-1-[(3E)-6-[(4-azido-2-nitrophenyl)amino]hex-3-en-1-yl]-2-(hydroxymethyl)piperidine-3,4,5-triol] and O=[N+]([O-])c1cc(CCO)ccc1NCCCCCCN1C[C@H](O)[C@@H](O)[C@H](O)[C@H]1CO [Compound 1292, (2R,3R,4R,5S)-1-(6-{[4-(2-hydroxyethyl)-2-nitrophenyl]amino}hexyl)-2-(hydroxymethyl)piperidine-3,4,5-triol] are within 1.5-fold of each other in IC50: 136 nM for the first, 157 nM for the second.

Compared with CS(=O)(=O)Nc1ccc(NCCCCCCN2C[C@H](O)[C@@H](O)[C@H](O)[C@H]2CO)c([N+](=O)[O-])c1 [Compound 1300, N-[3-nitro-4-({6-[(2R,3R,4R,5S)-3,4,5-trihydroxy-2-(hydroxy-methyl)piperidin-1-yl]hexyl}amino)phenyl]methanesulfonamide], COCCc1ccc(CCCCCN2C[C@H](O)[C@@H](O)[C@H](O)[C@H]2CO)cc1 [Compound 1307, (2R,3R,4R,5S)-2-(hydroxymethyl)-1-{5-[4-(2-methoxyethyl)phenyl]pentyl}piperidine-3,4,5-triol] is 7.4-fold higher in IC50: 157 nM for the first, 1160 nM for the second. The first is the more potent here.

Compared with Cc1cc(-c2ccco2)ccc1NCc1ccc(CN2C[C@H](O)[C@@H](O)[C@H](O)[C@H]2CO)cc1 [Compound 1324, (2R,3R,4R,5S)-1-{[4-({[4-(furan-2-yl)-2-methylphenyl]amino}methyl)phenyl]methyl}-2-(hydroxymethyl)piperidine-3,4,5-triol], Cc1cc(NCc2cccc(CN3C[C@H](O)[C@@H](O)[C@H](O)[C@H]3CO)n2)cc(-c2ccc[nH]2)c1 [Compound 1335, (2R,3R,4R,5S)-2-(hydroxymethyl)-1-{[6-({[3-methyl-5-(1H-pyrrol-2-yl)phenyl]amino}methyl)pyridin-2-yl]methyl}piperidine-3,4,5-triol] is higher in IC50: under 1 nM for the first, 966 nM for the second. The first is the more potent here.

Compound Cc1nc2cc(-c3ncccn3)ccc2n1CCCCCCN1C[C@H](O)[C@@H](O)[C@H](O)[C@H]1CO [Compound 1339, (2R,3R,4R,5S)-2-(hydroxymethyl)-1-{6-[2-methyl-5-(pyrimidin-2-yl)-1H-1,3-benzodiazol-1-yl]hexyl}piperidine-3,4,5-triol] has an IC50 of 78 nM.

same assay, conditions: Glucosidase 1; read-out: Glu 1 IC50

First: [N-]=[N+]=Nc1ccc(NCCc2nccc(CCN3C[C@H](O)[C@@H](O)[C@H](O)[C@H]3CO)n2)c([N+](=O)[O-])c1 [Compound 1188, (2R,3R,4R,5S)-1-[2-(2-{2-[(4-azido-2-nitrophenyl)amino]ethyl}pyrimidin-4-yl)ethyl]-2-(hydroxymethyl)piperidine-3,4,5-triol]
Second: [N-]=[N+]=Nc1ccc(NCCc2ccc(CCN3C[C@H](O)[C@@H](O)[C@H](O)[C@H]3CO)cc2)c([N+](=O)[O-])c1 [Compound 1200, (2R,3R,4R,5S)-1-[2-(4-{2-[(4-azido-2-nitrophenyl)amino]ethyl}phenyl)ethyl]-2-(hydroxymethyl)piperidine-3,4,5-triol]
The IC50 of the first is 25-fold higher: 762 nM for the first, 31 nM for the second.

Going from [N-]=[N+]=Nc1ccc(NCCc2cnn(CCN3C[C@H](O)[C@@H](O)[C@H](O)[C@H]3CO)c2)c([N+](=O)[O-])c1 [Compound 1191, (2R,3R,4R,5S)-1-[2-(4-{2-[(4-azido-2-nitrophenyl)amino]ethyl}-1H-pyrazol-1-yl)ethyl]-2-(hydroxymethyl)piperidine-3,4,5-triol] to OC[C@@H]1[C@@H](O)[C@H](O)[C@@H](O)CN1CCCCCCNc1ccc(-c2ncco2)cc1Cl [Compound 1203, (2R,3R,4R,5S)-1-(6-{[2-chloro-4-(1,3-oxazol-2-yl)phenyl]amino}hexyl)-2-(hydroxymethyl)piperidine-3,4,5-triol], the IC50 falls from 7550 nM to 3 nM (2500-fold).

OC[C@@H]1[C@@H](O)[C@H](O)[C@@H](O)CN1CCCCCCNc1cc(Cl)cc(-c2cnccn2)c1 [Compound 1196, (2R,3R,4R,5S)-1-(6-{[3-chloro-5-(pyrazin-2-yl)phenyl]amino}hexyl)-2-(hydroxymethyl)piperidine-3,4,5-triol] and COc1cc(NCCCCCCN2C[C@H](O)[C@@H](O)[C@H](O)[C@H]2CO)cc(-c2cnccn2)c1 [Compound 1197, (2R,3R,4R,5S)-2-(hydroxymethyl)-1-(6-{[3-methoxy-5-(pyrazin-2-yl)phenyl]amino}hexyl)piperidine-3,4,5-triol] are within 1.5-fold of each other in IC50: 105 nM for the first, 140 nM for the second.

Going from OC[C@@H]1[C@@H](O)[C@H](O)[C@@H](O)CN1CCCCCCNc1ccc(-c2cnccn2)cc1Cl [Compound 1198, (2R,3R,4R,5S)-1-(6-{[2-chloro-4-(pyrazin-2-yl)phenyl]amino}hexyl)-2-(hydroxymethyl)piperidine-3,4,5-triol] to COc1cc(-c2cnccn2)ccc1NCCCCCCN1C[C@H](O)[C@@H](O)[C@H](O)[C@H]1CO [Compound 1199, (2R,3R,4R,5S)-2-(hydroxymethyl)-1-(6-{[2-methoxy-4-(pyrazin-2-yl)phenyl]amino}hexyl)piperidine-3,4,5-triol], the IC50 rises from 12 nM to 77 nM (6.4-fold).

Compared with OC[C@@H]1[C@@H](O)[C@H](O)[C@@H](O)CN1CCCCCCNc1ccc(-c2cccnn2)cc1Cl [Compound 1202, (2R,3R,4R,5S)-1-(6-{[2-chloro-4-(pyridazin-3-yl)phenyl]amino}hexyl)-2-(hydroxymethyl)piperidine-3,4,5-triol], COc1cc(-c2ncco2)ccc1NCCCCCCN1C[C@H](O)[C@@H](O)[C@H](O)[C@H]1CO [Compound 1207, (2R,3R,4R,5S)-2-(hydroxymethyl)-1-(6-{[2-methoxy-4-(1,3-oxazol-2-yl)phenyl]amino}hexyl)piperidine-3,4,5-triol] is higher in IC50: under 1 nM for the first, 118 nM for the second. The first is the more potent here.
